Here are results for nine compounds from patent US20170354639A1, “DITERPENOID DERIVATIVES AND METHODS OF USE THEREOF” (Biogen MA Inc., priority 2014, published 2017).

Bounds are passed on as bounds.

For this assay, the target named is Nrf2-Keap1 (Homo sapiens, UniProt Q14145). Description: DiscoveRx PathHunter Nrf2-Keap1 nuclear translocation functional assay (agonist format). In kind it is cell-based. To be noted: in duplicate, agonist mode; for EC50: 10 concentrations, 3-fold serial dilutions, 30 μM top concentration, normalized to CDDO methyl ester and vehicle; for activation at 10 µM: single concentration of 10 μM, normalized to control ligand (CDDO methyl ester) and vehicle. Here is the method:
DiscoveRx PathHunter® Nrf2-Keap1 Functional Assay
DiscoveRx's Nrf2-Keapl translocation assay was used to profile compounds. Primary Screening was performed in duplicate at a single concentration of 10 μM and EC50 determinations were performed in duplicate at 10 concentrations with 3-fold serial dilutions at a 30 μM top concentration or an otherwise specified top concentration.
The PathHunter® Nuclear Translocation assay detects translocation of a target protein to, or from, the nucleus. In this system, Prolink™ (PK), a small enzyme fragment, is fused to the protein of interest and Enzyme Acceptor (EA) is localized in the nucleus. Activation of the signaling pathway induces the target protein to either transit into the nucleus, thus forcing complementation of the PK and EA fragments, or out of the nucleus, hindering complementation of the fragments.
Cell handling: PathHunter Pathway cell lines were expanded from freezer stocks according to standard procedures. 5000 cells were seeded in Cell Plating Reagent 0 (containing 1% FBS) to a total volume of 20 μL into white walled, 384-well microplates and incubated for the overnight prior to testing.
Agonist format: For Agonist determination, cells were incubated with sample to induce response. Dilution of sample stocks was performed to generate 100× sample in DMSO. Intermediate dilution of sample stocks was performed to generate 5× sample in assay buffer (Cell Plating Reagent 0 containing 1% FBS). 5 μL of 5× sample was added to cells and incubated at room temperature for 6 hours. Vehicle concentration was 1%.
Signal detection: Assay signal was generated through a single addition of 25 μL (100% v/v) of PathHunter Flash Detection reagent, followed by a one hour incubation at room temperature. Microplates were read following signal generation with a PerkinElmer Envision™ instrument for chemiluminescent signal detection.
Data analysis: Compound activity was analyzed using CBIS data analysis suite (ChemInnovation, CA). For agonist mode assays, percentage activity was calculated using the following formula: % Activity=100%×(mean RLU of test sample−mean RLU of vehicle control)/(mean MAX RLU control ligand−mean RLU of vehicle control). For EC50 determination, a control agonist dose response curve was generated in the Keap 1-Nrf2 biosensor assay, data was normalized to the maximal and minimal response observed in the presence of the control ligand and vehicle respectively. CDDO methyl ester was used as a control compound. Compounds were tested in the agonist mode of the assay and data was normalized to the maximal and minimal response observed in the presence of control ligand and vehicle.

Sequence of Nrf2-Keap1 (Q14145 whole entry): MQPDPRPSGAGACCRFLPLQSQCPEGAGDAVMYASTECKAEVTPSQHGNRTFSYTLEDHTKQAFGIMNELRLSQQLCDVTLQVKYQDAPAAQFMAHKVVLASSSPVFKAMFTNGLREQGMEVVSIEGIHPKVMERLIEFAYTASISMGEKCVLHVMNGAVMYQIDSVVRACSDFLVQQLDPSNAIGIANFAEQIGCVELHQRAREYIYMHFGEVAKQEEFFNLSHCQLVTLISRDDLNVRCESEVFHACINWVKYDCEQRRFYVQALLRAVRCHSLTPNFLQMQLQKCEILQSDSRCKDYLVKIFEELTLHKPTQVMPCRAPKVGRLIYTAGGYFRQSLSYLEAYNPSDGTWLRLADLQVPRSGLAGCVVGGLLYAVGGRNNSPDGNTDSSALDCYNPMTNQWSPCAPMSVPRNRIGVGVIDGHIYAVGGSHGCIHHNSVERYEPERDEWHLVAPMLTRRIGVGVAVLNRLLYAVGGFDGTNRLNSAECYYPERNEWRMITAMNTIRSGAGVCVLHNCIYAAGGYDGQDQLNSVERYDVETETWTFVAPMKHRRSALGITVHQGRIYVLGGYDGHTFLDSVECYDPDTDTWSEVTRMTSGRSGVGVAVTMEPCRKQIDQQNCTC

`C=C1CC[C@@H]2[C@]3(C)C=NO[C@@H]3CC[C@@]2(C)[C@@H]1C/C=C1/C(=O)OC[C@H]1O` [Example 12, (S,E)-3-(2-((3aR,5aS,6R,9aS,9bR)-5a,9b-dimethyl-7-methylene-3a,4,5,5a,6,7,8,9,9a,9b-decahydronaphtho[1,2-d]isoxazol-6-yl)ethylidene)-4-hydroxydihydrofuran-2(3H)-one] registered an EC50 of 500 to 2000 nM. Further, for the setting “6 hours”, the activation at 10 µM lay in the range of 51 to 100%. The compound `C=C1CC[C@H]2[C@@](C)(CC[C@@]3(C)O[S@@](=O)OC[C@@]23C)[C@@H]1C/C=C1/C(=O)OC[C@H]1O` [Example 13, (S,E)-4-hydroxy-3-(2-((3S,4aR,6aS,7R,10aS,10bR)-4a,6a,10b-trimethyl-8-methylene-3-oxidodecahydro-1H-naphtho[2,1-d][1,3,2]dioxathiin-7-yl)ethylidene)dihydrofuran-2(3H)-one] came in with an EC50 of 500 to 2000 nM. Further, the activation at 10 µM (6 h) is > 100%. For `C=C1CC[C@H]2[C@@](C)(CC[C@@]3(C)ON=C[C@@]23C)[C@@H]1C/C=C1/C(=O)OC[C@H]1O` [Example 14, (S,E)-4-hydroxy-3-(2-((3aR,5aS,6R,9aS,9bR)-3a,5a,9b-trimethyl-7-methylene-3a,4,5,5a,6,7,8,9,9a,9b-decahydronaphtho[1,2-d]isoxazol-6-yl)ethylidene)dihydrofuran-2(3H)-one], in that order: > 2000 nM and > 100%. For `C=C1CC[C@@H]2[C@@H](C)[C@H](NC)CC[C@@]2(C)[C@@H]1C/C=C1/C(=O)OC[C@H]1O` [Example 15, (4S,E)-3-(2-((1R,4aR,5R,8aR)-5,8a-dimethyl-6-(methylamino)-2-methylenedecahydronaphthalen-1-yl)ethylidene)-4-hydroxydihydrofuran-2(3H)-one], in that order: 500 to 2000 nM and 51 to 100%. In the case of `C=C1CC[C@@H]2[C@@H](C)[C@H](OC)CC[C@@]2(C)[C@@H]1C/C=C1/C(=O)OC[C@H]1O` [Example 16, (S,E)-4-hydroxy-3-(2-((1R,4aR,5R,6R,8aR)-6-methoxy-5,8a-dimethyl-2-methylenedecahydronaphthalen-1-yl)ethylidene)dihydrofuran-2(3H)-one], the EC50 was < 500 nM. Further, the activation at 10 µM (6 h) is > 100%. For `CO[C@@H]1CC[C@@]2(C)[C@H](C/C=C3/C(=O)OC[C@H]3O)C(C)=CC[C@@H]2[C@H]1C` [Example 17, (S,E)-4-hydroxy-3-(2-((1R,4aR,5R,6R,8aR)-6-methoxy-2,5,8a-trimethyl-1,4,4a,5,6,7,8,8a-octahydronaphthalen-1-yl)ethylidene)dihydrofuran-2(3H)-one], in that order: 500 to 2000 nM and 51 to 100%.

Where the note is “6 h”, `CO[C@@H]1CC[C@@]2(C)C(C/C=C3/C(=O)OC[C@H]3O)=C(C)CC[C@@H]2[C@H]1C` [Example 18, (S,E)-4-hydroxy-3-(2-((4aR,5R,6R,8aR)-6-methoxy-2,5,8a-trimethyl-3,4,4a,5,6,7,8,8a-octahydronaphthalen-1-yl)ethylidene)dihydrofuran-2(3H)-one] yielded an activation at 10 µM of 30 to 50%.

In turn, `C=C1CC[C@@H]2[C@]3(C)COS(=O)O[C@@H]3CC[C@@]2(C)[C@@H]1C/C=C1/C(=O)OCC1NC=O` (stereo partly drawn) [Example 19, N-((E)-4-(2-((4aR,6aS,7R,10aS,10bR)-6a,10b-dimethyl-8-methylene-3-oxidodecahydro-1H-naphtho[2,1-d][1,3,2]dioxathiin-7-yl)ethylidene)-5-oxotetrahydrofuran-3-yl)formamide] registered an activation at 10 µM (6 h) of 51 to 100%. As to `C=C1CC[C@@H]2[C@]3(C)COS(=O)O[C@@H]3CC[C@@]2(C)[C@@H]1C/C=C1/C(=O)OC[C@@H]1NC=O` (stereo partly drawn) [Example 21, N-((3R,E)-4-(2-((4aR,6aS,7R,10aS,10bR)-6a,10b-dimethyl-8-methylene-3-oxidodecahydro-1H-naphtho[2,1-d][1,3,2]dioxathiin-7-yl)ethylidene)-5-oxotetrahydrofuran-3-yl)formamide], the EC50 is > 2000 nM. The activation at 10 µM (6 h) fell in the range of 51 to 100%.
